Measurements as given in article PMC6353801, “Enhanced Anti-diabetic Effect of Berberine Combined With Timosaponin B2 in Goto-Kakizaki Rats, Associated With Increased Variety and Exposure of Effective Substances Through Intestinal Absorption” (Frontiers in Pharmacology, 2019).
Like-named read-outs stand apart in the source and are kept apart here.

Columns and labels:
[1] = Transport in Caco-2 cells; type: in vitro ADME, human; conditions: human; for efflux ratio at 120 min: Caco-2, Caco-2, no inhibitor, Papp (BL−AP)/Papp (AP−BL); for Papp A→B at 120 min / Papp B→A at 120 min: Caco-2, no inhibitor, digoxin 10 μM, TB-2 5 μM, BBR 10 μM
Description: (§1) The culture medium was changed every other day for the first 7 days and then daily for the next 14 days. […] Prior to the transport experiments, the cell monolayers were washed three times with HBSS at 37°C. […] At the same time, the corresponding opposite side was filled with medium as the receiving chamber. After incubation for 30, 60, 90, and 120 min, 250-μl aliquots of the medium was taken from the receiving chamber at each time point, and prepared for analysis by HPLC–MS/MS. […] where (ΔQ/Δt) is the linear slope of the drug concentration in the receptor chamber over time, A represents the surface area of the membrane (1.12 cm^2), and C0 is the initial concentration of drug in the donor chamber. The efflux ratio (ERpermeability) for BL to AP and AP to BL transport was defined by the following equation: […] where Papp (BL–AP) and Papp (AP–BL) are the apparent permeability of drugs from the basolateral (BL) to apical (AP) and AP to BL sides of the monolayer, respectively.

Caco-2 cells = assay: Transport in Caco-2 cells; type: in vitro ADME, human; conditions: Caco-2, no inhibitor; Papp (BL−AP)/Papp (AP−BL)
Description: as §1

GK rats [2] = assay: NFBG and FBG levels in GK rats, 6-week oral treatment; type: in vivo, rat; conditions: during 6-week treatment, TB-2 33.3, BBR 66.7, TB-2+BBR 100, metformin 200 mg/kg/day
Description: (§2) Four-week-old male GK rats were fed a high-fat diet, and age-matched non-diabetic Wistar rats were fed standard chow as the control group. Under these dietary conditions, blood glucose was estimated each week for 7 weeks in 12-h fasted rats using a portable glucometer (One Touch Sure Step Meter, Johnson & Johnson, United States) by drawing the blood from the tail vein. GK rats with fasting blood glucose levels (FBG) above 16.7 mM were considered as diabetic rats, and only uniformly diabetic rats were used in this study. […] All the drugs were suspended in 0.5% carboxymethylcellulose sodium (CMC-Na) solution for oral gavage (10 ml/kg) once per day (at 9:00) for 6 weeks. Simultaneously, the Wistar and vehicle groups received vehicle over the treatment period. Food consumption and body weight were measured every week throughout the experimental periods. Non-fasting blood glucose (NFBG) levels were determined by collecting blood samples from the tail vein (at 9:00), and FBG levels were determined after a 6-h fast (at 15:00) on days 0, 7, 14, 21, and 42. On day 28, an oral glucose tolerance test (OGTT) was performed after an overnight fast. […] On day 42, the rats were anesthetized with urethane (1.4 g/kg, dissolved in saline) after an overnight fast and were sacrificed to collect the liver, kidney, heart, and spleen. The organs were weighed after washing with saline and drying to calculate the organ coefficient, namely, the ratio between the weight of organs and the body in each rat.

GK rats [3] = assay: Oral glucose tolerance test (OGTT) in GK rats on day 28; type: in vivo, rat; conditions: after 4 weeks of treatment, glucose 2 g/kg oral
Description: as §2

[4] = Body weight, food intake, organ coefficients and side effects in GK rats; type: in vivo, rat
Description: as §2

[5] = PK in systemic plasma of GK rats after repeated oral administration (day 35); type: in vivo, rat; conditions: rat, in vivo
Description: Analyses were performed on a Shimadzu LCMS-8030 triple quadrupole system (Shimadzu Corp., Japan) equipped with an electrospray ionization source. Data processing was performed using Shimadzu LC–MS LabSolutions (version 5.42 SP4, Shimadzu, Japan). Chromatographic separation was carried out on a Waters CORTECS C18+ column (100 mm × 2.1 mm, 2.7 μm, Ireland) with a security guard C18+ column (5 mm × 2.1 mm, 2.7 μm, Ireland). […] The gradient elution was 85% B from 0 to 2.5 min, 85% B–83% B from 2.5 to 3.0 min, 83% B from 3.0 to 6.0 min, 83% B–40% B from 6.0 to 6.5 min, 40% B from 6.5 to 7.0 min, 40% B–85% B from 7.0 to 7.2 min, and 85% B from 7.2 to 12 min. […] The optimized precursor-to-product ion pairs (collision energy) were in the positive mode as follows: m/z 579.20–255.15 (28 V) for TB-2 (at 4.1 min) and timosaponin A3 (at 6.1 min) and 271.50–154.70 (25 V) for tolbutamide (IS, at 5.8 min). […] If the concentrations of the compounds were over the linear range, the relevant samples were diluted with blank matrix by a factor of 10. […] Four-week-old male GK rats were fed a high-fat diet, and age-matched non-diabetic Wistar rats were fed standard chow as the control group. Under these dietary conditions, blood glucose was estimated each week for 7 weeks in 12-h fasted rats using a portable glucometer (One Touch Sure Step Meter, Johnson & Johnson, United States) by drawing the blood from the tail vein. GK rats with fasting blood glucose levels (FBG) above 16.7 mM were considered as diabetic rats, and only uniformly diabetic rats were used in this study. […] All the drugs were suspended in 0.5% carboxymethylcellulose sodium (CMC-Na) solution for oral gavage (10 ml/kg) once per day (at 9:00) for 6 weeks. Simultaneously, the Wistar and vehicle groups received vehicle over the treatment period. Food consumption and body weight were measured every week throughout the experimental periods. Non-fasting blood glucose (NFBG) levels were determined by collecting blood samples from the tail vein (at 9:00), and FBG levels were determined after a 6-h fast (at 15:00) on days 0, 7, 14, 21, and 42. On day 28, an oral glucose tolerance test (OGTT) was performed after an overnight fast. […] On day 42, the rats were anesthetized with urethane (1.4 g/kg, dissolved in saline) after an overnight fast and were sacrificed to collect the liver, kidney, heart, and spleen. The organs were weighed after washing with saline and drying to calculate the organ coefficient, namely, the ratio between the weight of organs and the body in each rat. The liver samples were diluted with 3 volumes (0.5 g/1.5 ml) of saline and homogenized. The liver homogenates and plasma samples (100 μl) were precipitated with three volumes of acetonitrile (containing 10 μg/ml tolbutamide). […] Then, 100 μl of the original mobile phase was added, and the samples were vortexed for 5 min and centrifuged at 13,000 rpm at 4°C for 10 min. Finally, the supernatant was used for HPLC–QQQ–MS/MS analysis. A non-compartmental analysis was performed using WinNonlin software (Pharsight 6.2, Raleigh, NC, United States) to calculate the PK parameters. The significance of PK parameters in normal rats, generated by the sparse method in WinNonlin, was assessed with Welch’s unequal variances t-test. The significance of the other results was assessed using two-tailed Student’s t-tests. Statistical significance was defined as P < 0.05.

[6] = male, Wistar, rat, in vivo
[7] = male, Wistar, rat, in vivo; remark: listed apart in the source
[8] = ref Cai et al., 2008; cited from earlier work
in vivo [9] = conditions: male, Wistar, rat, po
in vivo [10] = conditions: male, Wistar, rat, po; remark: listed apart in the source
primary rat hepatocytes = assay: Hepatic metabolism in primary hepatocytes; conditions: BBR 1 μM, 3 h, ABT 1 mM, TB-2 0.1 to 30 μM
[11] = read-out: ERpermeability (efflux ratio)
[12] = with BBR 10 μM (co-incubated), Caco-2, TB-2 5 μM in presence of BBR (10 μM), n = 3

C[C@H]1O[C@@H](O[C@H]2[C@@H](O)C[C@H](O[C@H]3[C@@H](O)C[C@H](O[C@H]4CC[C@@]5(C)[C@H](CC[C@@H]6[C@@H]5C[C@@H](O)[C@]5(C)[C@@H](C7=CC(=O)OC7)CC[C@]65O)C4)O[C@@H]3C)O[C@@H]2C)C[C@H](O)[C@@H]1O [Digoxin, digoxin]
efflux ratio at 120 min [1, 11]: ~130
Papp A→B at 120 min ([1]; n = 3): 0.191 ± 0.02 ×10⁻⁶ cm/s
Papp B→A at 120 min ([1]; n = 3): 26.5 ± 1.91 ×10⁻⁶ cm/s
ERpermeability (efflux ratio) (Caco-2 cells): 138.8

CC(CCC1(O)OC2CC3C4CCC5CC(OC6OC(CO)C(O)C(O)C6OC6OC(CO)C(O)C(O)C6O)CCC5(C)C4CCC3(C)C2C1C)COC1OC(CO)C(O)C(O)C1O (stereo not shown) [TB-2, timosaponin B2]
FBG levels compared with the vehicle group (in words) (GK rats [2]): no significant differences
NFBG levels compared with the vehicle group (in words) (GK rats [2]): no significant differences
decrease in the AUC of blood glucose in OGTT vs vehicle (GK rats [3]): didn’t significantly decrease
effect on body weight or food consumption vs vehicle ([4]; 6-week oral treatment): no effect
effect on organ coefficients (liver and kidney) vs vehicle ([4]; day 42): limited
AUC ([5]; male, GK, po, 33.3 mg/kg): 100.4 ± 26.2 h ∗ ng/ml
T1/2 ([5]; male, GK, po, 33.3 mg/kg): 8.6 ± 1.8 h
Tmax ([5]; male, GK, po, 33.3 mg/kg): 1.1 ± 0.3 h
AUC ([5]; male, GK, po, 33.3 mg/kg, AUC): 77.5 ± 13.6 ng·h/mL
half-life ([5]; male, GK, po, 33.3 mg/kg, T1/2): 14.3 ± 5.3 h
Tmax ([5]; male, GK, po, 33.3 mg/kg, Tmax): 2.1 ± 0.6 h
increase in AUC on combination vs single treatment [5]: no significant improvement
increase in Cmax on combination vs single treatment [5]: no significant improvement
efflux ratio at 120 min [1, 11]: 1.1
efflux ratio at 120 min, 5 μM ([1]; Caco-2, with BBR 10 μM (co-incubated), Caco-2, TB-2 5 μM in presence of BBR (10 μM), read-out: ERpermeability (efflux ratio)): 1
Papp A→B at 120 min, 5 μM [1, 12]: 0.081 ± 0.035 ×10⁻⁶ cm/s
Papp B→A at 120 min, 5 μM [1, 12]: 0.085 ± 0.035 ×10⁻⁶ cm/s
Papp A→B at 120 min ([1]; n = 3): 0.057 ± 0.032 ×10⁻⁶ cm/s
Papp B→A at 120 min ([1]; n = 3): 0.061 ± 0.043 ×10⁻⁶ cm/s
ERliver (liver extraction ratio) [6]: 77.8%
ERliver (liver extraction ratio) ([6]; po, 33.3 mg/kg): 80.6%
improvement of levels on co-administration [7]: 141–230%
bioavailability [8]: 1.2%
Tmax (in vivo [9]; 33.3 mg/kg): 1 h
Tmax (in vivo [9]; 100 mg/kg): 2 h
half-life (in vivo [9]; 100 mg/kg): 22.8 h
Tmax (in vivo [10]; 33.3 mg/kg): 0.2 h
half-life (in vivo [10]; 100 mg/kg): 23.2 h
Tmax (in vivo [10]; 100 mg/kg): 2 h
effect on BBR metabolism and the generation of M2–M5 (primary rat hepatocytes): did not significantly affect
